{
  "source": "the NIST ThermoML archive (doi:10.1016/j.jct.2013.07.008)",
  "key": {"[1]": {"test": "refractive index (Na D-line) (dimensionless)", "settings": "101.33 kPa, Liquid, Standard Abbe refractometry"}, "[2]": {"settings": "for mass density: 101.33 kPa, Buoyancy - hydrostatic balance; for mass density / surface tension liquid-gas: Liquid; for surface tension liquid-gas: Maximal bubble pressure; for Glass transition temperature: DTA"}},
  "note": "Numbers after ± are expanded uncertainties.",
  "data": [
    {"smiles": "CC(O)C(=O)[O-].CCn1cc[n+](C)c1", "note": "[1-ethyl-3-methylimidazolium lactate]", "values": [
      {"measurement": "refractive index", "setting": "[1]; 288.15 K", "result": "1.5026 ± 0.0005"},
      {"measurement": "refractive index", "setting": "[1]; 293.15 K", "result": "1.5014 ± 0.0005"},
      {"measurement": "refractive index", "setting": "[1]; 303.15 K", "result": "1.4987 ± 0.0005"},
      {"measurement": "refractive index", "setting": "[1]; 308.15 K", "result": "1.4977 ± 0.0005"},
      {"measurement": "refractive index", "setting": "[1]; 313.15 K", "result": "1.4961 ± 0.0005"},
      {"measurement": "refractive index", "setting": "[1]; 318.15 K", "result": "1.495 ± 0.0005"},
      {"measurement": "refractive index", "setting": "[1]; 323.15 K", "result": "1.4936 ± 0.0005"},
      {"measurement": "refractive index", "setting": "[1]; 328.15 K", "result": "1.4926 ± 0.0005"},
      {"measurement": "refractive index", "setting": "[1]; 333.15 K", "result": "1.4913 ± 0.0005"},
      {"measurement": "mass density", "setting": "[2]; 288.15 K", "result": "1192.9 ± 1.2", "unit": "kg/m3"},
      {"measurement": "surface tension liquid-gas", "setting": "[2]; 288.15 K", "result": "49.5 ± 0.6", "unit": "mN/m"},
      {"measurement": "mass density", "setting": "[2]; 293.15 K", "result": "1189.8 ± 1.1", "unit": "kg/m3"},
      {"measurement": "surface tension liquid-gas", "setting": "[2]; 293.15 K", "result": "49.2 ± 0.6", "unit": "mN/m"},
      {"measurement": "mass density", "setting": "[2]; 303.15 K", "result": "1183.4 ± 1.1", "unit": "kg/m3"},
      {"measurement": "surface tension liquid-gas", "setting": "[2]; 303.15 K", "result": "48.4 ± 0.6", "unit": "mN/m"},
      {"measurement": "mass density", "setting": "[2]; 308.15 K", "result": "1180.1 ± 1.1", "unit": "kg/m3"},
      {"measurement": "surface tension liquid-gas", "setting": "[2]; 308.15 K", "result": "48 ± 0.6", "unit": "mN/m"},
      {"measurement": "mass density", "setting": "[2]; 313.15 K", "result": "1176.4 ± 1.1", "unit": "kg/m3"},
      {"measurement": "surface tension liquid-gas", "setting": "[2]; 313.15 K", "result": "47.7 ± 0.6", "unit": "mN/m"},
      {"measurement": "mass density", "setting": "[2]; 318.15 K", "result": "1173.4 ± 1.1", "unit": "kg/m3"},
      {"measurement": "surface tension liquid-gas", "setting": "[2]; 318.15 K", "result": "47.4 ± 0.6", "unit": "mN/m"},
      {"measurement": "mass density", "setting": "[2]; 323.15 K", "result": "1170.4 ± 1.1", "unit": "kg/m3"},
      {"measurement": "surface tension liquid-gas", "setting": "[2]; 323.15 K", "result": "47 ± 0.6", "unit": "mN/m"},
      {"measurement": "mass density", "setting": "[2]; 328.15 K", "result": "1167.1 ± 1.1", "unit": "kg/m3"},
      {"measurement": "surface tension liquid-gas", "setting": "[2]; 328.15 K", "result": "46.6 ± 0.6", "unit": "mN/m"},
      {"measurement": "mass density", "setting": "[2]; 333.15 K", "result": "1163.6 ± 1.1", "unit": "kg/m3"},
      {"measurement": "surface tension liquid-gas", "setting": "[2]; 333.15 K", "result": "46.3 ± 0.6", "unit": "mN/m"},
      {"measurement": "Glass transition temperature", "setting": "[2]", "result": "-81.30 ± 2", "unit": "°C"}
    ]},
    {"smiles": "CC(O)C(=O)[O-].CCCCCn1cc[n+](C)c1", "note": "[1-pentyl-3-methylimidazolium lactate]", "values": [
      {"measurement": "refractive index", "setting": "[1]; 288.15 K", "result": "1.494 ± 0.0005"},
      {"measurement": "refractive index", "setting": "[1]; 293.15 K", "result": "1.4928 ± 0.0005"},
      {"measurement": "refractive index", "setting": "[1]; 303.15 K", "result": "1.4901 ± 0.0005"},
      {"measurement": "refractive index", "setting": "[1]; 308.15 K", "result": "1.4891 ± 0.0005"},
      {"measurement": "refractive index", "setting": "[1]; 313.15 K", "result": "1.4875 ± 0.0005"},
      {"measurement": "refractive index", "setting": "[1]; 318.15 K", "result": "1.4864 ± 0.0005"},
      {"measurement": "refractive index", "setting": "[1]; 323.15 K", "result": "1.485 ± 0.0005"},
      {"measurement": "refractive index", "setting": "[1]; 328.15 K", "result": "1.4841 ± 0.0005"},
      {"measurement": "refractive index", "setting": "[1]; 333.15 K", "result": "1.4827 ± 0.0005"},
      {"measurement": "mass density", "setting": "[2]; 288.15 K", "result": "1112.6 ± 1", "unit": "kg/m3"},
      {"measurement": "surface tension liquid-gas", "setting": "[2]; 288.15 K", "result": "43.1 ± 0.5", "unit": "mN/m"},
      {"measurement": "mass density", "setting": "[2]; 293.15 K", "result": "1109 ± 1", "unit": "kg/m3"},
      {"measurement": "surface tension liquid-gas", "setting": "[2]; 293.15 K", "result": "42.7 ± 0.5", "unit": "mN/m"},
      {"measurement": "mass density", "setting": "[2]; 303.15 K", "result": "1102.7 ± 1", "unit": "kg/m3"},
      {"measurement": "surface tension liquid-gas", "setting": "[2]; 303.15 K", "result": "42 ± 0.5", "unit": "mN/m"},
      {"measurement": "mass density", "setting": "[2]; 308.15 K", "result": "1099.4 ± 1", "unit": "kg/m3"},
      {"measurement": "surface tension liquid-gas", "setting": "[2]; 308.15 K", "result": "41.5 ± 0.5", "unit": "mN/m"},
      {"measurement": "mass density", "setting": "[2]; 313.15 K", "result": "1095.3 ± 1", "unit": "kg/m3"},
      {"measurement": "surface tension liquid-gas", "setting": "[2]; 313.15 K", "result": "41.2 ± 0.5", "unit": "mN/m"},
      {"measurement": "mass density", "setting": "[2]; 318.15 K", "result": "1092.9 ± 1", "unit": "kg/m3"},
      {"measurement": "surface tension liquid-gas", "setting": "[2]; 318.15 K", "result": "40.9 ± 0.5", "unit": "mN/m"},
      {"measurement": "mass density", "setting": "[2]; 323.15 K", "result": "1089.9 ± 1", "unit": "kg/m3"},
      {"measurement": "surface tension liquid-gas", "setting": "[2]; 323.15 K", "result": "40.5 ± 0.5", "unit": "mN/m"},
      {"measurement": "mass density", "setting": "[2]; 328.15 K", "result": "1086.4 ± 1", "unit": "kg/m3"},
      {"measurement": "surface tension liquid-gas", "setting": "[2]; 328.15 K", "result": "40.1 ± 0.5", "unit": "mN/m"},
      {"measurement": "mass density", "setting": "[2]; 333.15 K", "result": "1083.3 ± 1", "unit": "kg/m3"},
      {"measurement": "surface tension liquid-gas", "setting": "[2]; 333.15 K", "result": "39.8 ± 0.5", "unit": "mN/m"},
      {"measurement": "Glass transition temperature", "setting": "[2]", "result": "-78.20 ± 2", "unit": "°C"}
    ]}
  ]
}
